In ChEMBL document CHEMBL3988442, “University of Dundee, Small-Polar-MMV Screening Library” (2021):

Assay: In vitro enzyme assay to detect hydrolysis of chlorophenol red-beta-D-[…] directly proportional to the number of Toxoplasma stably expressing beta-galactosidase
Format: functional, organism-based, Toxoplasma gondii
Details: Toxoplasma gondii

Structure (SMILES) | IC50 [µM]
CCC(C)Oc1ccc(CNCCc2c[nH]cn2)cc1Cl (stereo unspecified) | 29
Cn1ccnc1CN1CCC(c2ccnc(-c3cccc(O)c3)c2)C1 (stereo unspecified) | 37.9
O=C(NCCC1=CCCCC1)c1cc(-c2ccc(O)cc2)n[nH]1 | 0.391
C[C@@H]1CN(C2CCN(c3ccccc3F)CC2)CC[C@]1(C)O | > 50.1
O=C(c1cc(=O)[nH][nH]1)N1CCCC2(CCC(=O)N(C3CCCC3)C2)C1 (stereo unspecified) | > 50.1
CC(C)c1cc(CN(C)C(=O)C(C)N2CCc3ccccc3C2)no1 (stereo unspecified) | > 50.1
CC(C)[C@@H]1CN(c2ncc(F)cn2)C[C@H]1NS(=O)(=O)N(C)C | > 50.1
CO[C@H]1[C@@H]2CC[C@H]1CN(c1nc(C)nc3ccsc13)C2 | 6.77
CNC(=O)C1(N(C)CCc2ccccc2)Cc2ccccc2C1 | 11.3
Fc1cc(Cl)cnc1N1CCCC(c2nccn2Cc2ccccn2)C1 (stereo unspecified) | > 50.1
Cc1oc(-c2ccoc2)nc1CN1CCC[C@H]1CO | 4.96
CS(=O)(=O)c1ccc(-c2cc(O)cc(CCC3CCCCN3)c2)cc1 (stereo unspecified) | 16.6
Nc1nc2c(c(NCc3nccs3)n1)CCN(CC1CCCC1)CC2 | 7.85
CCc1cnc(N2CCCC(CCC(N)=O)C2)nc1 (stereo unspecified) | > 50.1
CCCc1nc(CN(CC)C(=O)c2onc3ccccc23)no1 | > 50.1
CCCn1ncc(-c2ccnc(N[C@@H]3C[C@@H]4CC[C@H]3C4)n2)c1C | 5.59
Cc1ccc(C)c(C(=O)N2CCC3(CCC(=O)N(CC(N)=O)C3)CC2)c1 | > 50.1
O[C@@H]1CN(c2nc3ccccc3s2)CC[C@H]1c1ccc2c(c1)OCO2 | 5.27
CSCCC1c2nc[nH]c2CCN1Cc1cc(Cl)ccc1O (stereo unspecified) | 12.3
CCc1nc(C)cn1C(=O)Nc1ccccc1 | 5.1
CC(C)=CCN1CCOC(Cn2nc(C)cc2C)C1 (stereo unspecified) | > 50.1
CN(C(=O)NCCCN1CCCC1)C1CCN(c2ccccc2)C1=O (stereo unspecified) | > 50.1

Structure (SMILES) | IC50 [µM]
Cc1ccoc1C(=O)NC1CCN(Cc2csc3c(F)cccc23)CC1 | 8.38
CCc1cccc(OCC(=O)N2CCCC(n3cncn3)C2)c1 (stereo unspecified) | 28.2
CCc1nc2ccccc2c(=O)n1CC1(O)CCN(C(=O)COC)CC1 | > 50.1
COc1cccc(-c2noc(C3CCN(Cc4ccccc4C)C3)n2)c1 (stereo unspecified) | 10.1
COc1c(CNC2(c3noc(C)n3)CCC2)c(C)nn1C | > 50.1
CCOc1ccc2ccccc2c1CNCC1CCNCC1 | 6.4
Cc1ccc([C@]2(O)CC[C@H]3CN(Cc4cccc(Cl)c4Cl)C[C@H]32)nc1 | 8.76
Cc1nc2cc(C3CCN(Cc4cccc(F)c4F)C3)nn2c(O)c1C (stereo unspecified) | 10.5
NCc1cccc(CN2CCCC2)c1 | > 50.1
COc1c(N)c(C)nn1C | > 50.1
CCc1ccc(CN(CCO)Cc2nccn2C)nc1 | > 50.1
CC(C)COC1CCN(S(=O)(=O)N2CCCC2)CC1 | > 50.1
c1ccc(CNc2ccncc2)nc1 | > 50.1
CC(C)CC1NCCNC1=O (stereo unspecified) | > 50.1
Cc1ccc(Cl)cc1NC(=O)CN1CCNC(=O)C1 | > 50.1
NC1CCCCNC1=O (stereo unspecified) | > 50.1
Cc1cccc(NC(=O)[C@@H]2CCCN2)n1 | > 50.1
Cc1noc(CCCNC(=O)c2ccon2)n1 | > 50.1
Cc1nnc(SCCO)s1 | > 50.1
CCCNC(=O)CCn1nc(C)cc1C | > 50.1
NC1CCN(C(=O)C2(c3cccc(F)c3)CC2)CC1 | > 50.1
N#Cc1ccc(-n2nccc2N)cc1 | 13.6

Structure (SMILES) | IC50 [µM]
CCOCC(C)OC(=O)c1ccnn1C (stereo unspecified) | > 50.1
CCS(=O)(=O)N(CCc1cccs1)CC(=O)NC | > 50.1
Cc1cc(CN)nc(N(C)C)n1 | > 50.1
N#Cc1ccc(C2NC(=O)c3cccnc3N2)cc1 (stereo unspecified) | > 50.1
Cn1ccc2ccc(NS(=O)(=O)C3CC3)cc2c1=O | > 50.1
CNC(=O)NCc1cccnc1OC1CCCC1 | > 50.1
C1CC(C2CNC2)CCO1 | > 50.1
NCCc1cc(-c2ccncc2)[nH]n1 | > 50.1
NC1CCN(C(=O)Nc2ccccc2)C1 (stereo unspecified) | > 50.1
CCc1noc(CC)c1CNC(=O)Nc1ncnn1C | > 50.1
CC(Cc1ccco1)NS(=O)(=O)N1CCOCC1 (stereo unspecified) | > 50.1
CNC(=O)[C@@H]1CSCN1c1ccc(C(F)(F)F)cn1 | > 50.1
NC(=O)C[C@@H](N)c1ccccc1Cl | > 50.1
CCNc1ccc(C(F)(F)F)cn1 | > 50.1
COc1ccccc1N1CCCC(N)C1 (stereo unspecified) | > 50.1
Cc1ccc(CN(C)C(=O)Cn2cnnn2)o1 | > 50.1
CCOc1ncccc1C(=O)NCC(C)N1CCCC1 (stereo unspecified) | > 50.1
Cc1ocnc1C(=O)Nc1ccc2c(c1)NCCC2 | > 50.1
Nc1c[nH]nc1C(=O)NCc1cccc(Cl)c1 | > 50.1
CCN(CC(C)C#N)C(=O)c1ccc(Br)o1 (stereo unspecified) | > 50.1
CN(CCNS(C)(=O)=O)CCSc1ccccc1 | > 50.1
Cc1cc(C)n(CC2CCNCC2)n1 | > 50.1
